Earlier results on four compounds are cited in patent US20250352523A1, “TRIPLE PHARMACEUTICAL COMPOSITION FOR PROTEINACEOUS INFECTION” (priority 2024, published 2025).

Molecules are shown by their SMILES.

One series has as its system AD. As to conditions: in vivo.
In another series the test system is patients with AD. As to conditions: human, in vivo.
The subject of another series is AD patients. The settings on record: twelve months' treatment, versus placebo.

On to `CC(=O)Nc1ccc(O)cc1` [Acetaminophen], for which the “beneficial effects on AD” value with AD is recorded as “not found to have beneficial effects”.
`COc1ccc2cc([C@H](C)C(=O)O)ccc2c1` [Naproxen]: the “cognitive function in patients with AD” value with patients with AD is listed as “did not improve cognitive function”.
Turning to `CC(=O)Oc1ccccc1C(=O)O` [aspirin], the “beneficial effects on AD” value in the series with AD is reported as “not found to have beneficial effects”.
Consider `CO[C@H]1/C=C/O[C@@]2(C)Oc3c(C)c(O)c4c(O)c(c(/C=N/N5CCN(C)CC5)c(O)c4c3C2=O)NC(=O)/C(C)=C\C=C\[C@H](C)[C@H](O)[C@@H](C)[C@@H](O)[C@@H](C)[C@H](OC(C)=O)[C@@H]1C` [rifampin], for which the “effects on cognition or function in AD” value with AD patients is “no beneficial effects”.
